Laboratory results published in PubChem BioAssay (NCI).
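How tested: cells in 96-well plates exposed to compound for 48 hours at five concentrations. At the GI50, growth is halved. TGI: concentration producing complete growth inhibition.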

What was measured:
Experiment in all cases: DTP human tumour cell line panel, 48 h
LOX IMVI melanoma = system: LOX IMVI melanoma
MDA-MB-435 = system: MDA-MB-435
SF-268 CNS = system: SF-268 CNS
HCC-2998 colon = system: HCC-2998 colon
NCI/ADR-RES ovarian = system: NCI/ADR-RES ovarian
MALME-3M melanoma = system: MALME-3M melanoma
RXF 393 renal = system: RXF 393 renal
HS 578T breast = system: HS 578T breast
SN12C renal = system: SN12C renal
T-47D breast = system: T-47D breast
SK-OV-3 ovarian = system: SK-OV-3 ovarian
OVCAR-4 ovarian = system: OVCAR-4 ovarian
UACC-62 melanoma = system: UACC-62 melanoma
ACHN renal = system: ACHN renal
NCI-H226 lung = system: NCI-H226 lung
SR leukemia = system: SR leukemia
SK-MEL-28 melanoma = system: SK-MEL-28 melanoma
UO-31 renal = system: UO-31 renal
HOP-62 NSCLC = system: HOP-62 NSCLC
MOLT-4 leukemia = system: MOLT-4 leukemia
BT-549 breast = system: BT-549 breast
COLO 205 colon = system: COLO 205 colon
U251 CNS = system: U251 CNS
HOP-92 NSCLC = system: HOP-92 NSCLC
CAKI-1 renal = system: CAKI-1 renal
NCI-H23 lung = system: NCI-H23 lung
EKVX NSCLC = system: EKVX NSCLC
UACC-257 melanoma = system: UACC-257 melanoma
HT29 colon = system: HT29 colon
RPMI-8226 leukemia = system: RPMI-8226 leukemia
M14 melanoma = system: M14 melanoma
DU-145 prostate = system: DU-145 prostate
OVCAR-3 ovarian = system: OVCAR-3 ovarian
SNB-19 CNS = system: SNB-19 CNS
SF-295 CNS = system: SF-295 CNS
NCI-H460 lung = system: NCI-H460 lung
K-562 leukemia = system: K-562 leukemia
SK-MEL-5 melanoma = system: SK-MEL-5 melanoma
SF-539 CNS = system: SF-539 CNS
CCRF-CEM leukemia = system: CCRF-CEM leukemia
HCT-15 colon = system: HCT-15 colon
A549 NSCLC = system: A549 NSCLC
OVCAR-5 ovarian = system: OVCAR-5 ovarian
IGROV1 ovarian = system: IGROV1 ovarian
HCT-116 colon = system: HCT-116 colon
TK-10 renal = system: TK-10 renal
HL-60(TB) leukemia = system: HL-60(TB) leukemia
OVCAR-8 ovarian = system: OVCAR-8 ovarian
786-0 renal = system: 786-0 renal
MDA-MB-231 breast = system: MDA-MB-231 breast
SW-620 colon = system: SW-620 colon
KM12 colon = system: KM12 colon
A498 renal = system: A498 renal
PC-3 prostate = system: PC-3 prostate
NCI-H522 lung = system: NCI-H522 lung
MCF7 breast = system: MCF7 breast
SNB-75 CNS = system: SNB-75 CNS

## C=C1OC2OC(C)C(NC(=O)OCC(Cl)(Cl)Cl)C(OC(C)=O)C2O1 (configuration not stated)
LOX IMVI melanoma
  TGI: > 100 µM
MDA-MB-435
  TGI: > 100 µM
SF-268 CNS
  TGI: > 100 µM
HCC-2998 colon
  TGI: > 100 µM
NCI/ADR-RES ovarian
  TGI: > 100 µM
MALME-3M melanoma
  TGI: > 100 µM
RXF 393 renal
  TGI: > 100 µM
HS 578T breast
  TGI: > 100 µM
SN12C renal
  TGI: > 100 µM
T-47D breast
  TGI: > 100 µM
SK-OV-3 ovarian
  TGI: > 100 µM
OVCAR-4 ovarian
  TGI: > 100 µM
UACC-62 melanoma
  TGI: > 100 µM
ACHN renal
  TGI: > 100 µM
NCI-H226 lung
  TGI: > 100 µM
SR leukemia
  TGI: > 100 µM
SK-MEL-28 melanoma
  TGI: > 100 µM
UO-31 renal
  TGI: > 100 µM
HOP-62 NSCLC
  TGI: > 100 µM
MOLT-4 leukemia
  TGI: > 100 µM
BT-549 breast
  TGI: > 100 µM
COLO 205 colon
  TGI: > 100 µM
U251 CNS
  TGI: > 100 µM
HOP-92 NSCLC
  TGI: > 100 µM
CAKI-1 renal
  TGI: > 100 µM
NCI-H23 lung
  TGI: > 100 µM
EKVX NSCLC
  TGI: > 100 µM
UACC-257 melanoma
  TGI: > 100 µM
HT29 colon
  TGI: > 100 µM
RPMI-8226 leukemia
  TGI: > 100 µM
M14 melanoma
  TGI: > 100 µM
DU-145 prostate
  TGI: > 100 µM
OVCAR-3 ovarian
  TGI: > 100 µM
SNB-19 CNS
  TGI: > 100 µM
SF-295 CNS
  TGI: > 100 µM
NCI-H460 lung
  TGI: > 100 µM
K-562 leukemia
  TGI: > 100 µM
SK-MEL-5 melanoma
  TGI: > 100 µM
SF-539 CNS
  TGI: > 100 µM
CCRF-CEM leukemia
  TGI: > 100 µM
HCT-15 colon
  TGI: > 100 µM
A549 NSCLC
  TGI: > 100 µM
OVCAR-5 ovarian
  TGI: > 100 µM
IGROV1 ovarian
  TGI: > 100 µM
HCT-116 colon
  TGI: > 100 µM
TK-10 renal
  TGI: > 100 µM
HL-60(TB) leukemia
  TGI: > 100 µM
OVCAR-8 ovarian
  TGI: > 100 µM
786-0 renal
  TGI: > 100 µM
MDA-MB-231 breast
  TGI: > 100 µM
SW-620 colon
  TGI: > 100 µM
KM12 colon
  TGI: > 100 µM
A498 renal
  TGI: > 100 µM
PC-3 prostate
  TGI: > 100 µM
NCI-H522 lung
  TGI: > 100 µM
MCF7 breast
  TGI: > 100 µM

## COc1ccc(-c2nsc3c2NC(=O)CC3c2ccsc2)cc1 (configuration not stated)
LOX IMVI melanoma
  GI50: 0.422 µM
  TGI: > 100 µM
MDA-MB-435
  GI50: 0.0235 µM
  TGI: 0.0644 µM
SF-268 CNS
  GI50: 1.34 µM
  TGI: > 100 µM
HCC-2998 colon
  GI50: 0.528 µM
  TGI: > 22.7 µM
NCI/ADR-RES ovarian
  GI50: 0.064 µM
  TGI: 0.278 µM
SNB-75 CNS
  GI50: 0.119 µM
  TGI: > 100 µM
MALME-3M melanoma
  GI50: 0.135 µM
  TGI: 72.9 µM
RXF 393 renal
  GI50: 0.367 µM
  TGI: > 100 µM
HS 578T breast
  GI50: 0.269 µM
  TGI: > 100 µM
SN12C renal
  GI50: 0.83 µM
  TGI: > 100 µM
T-47D breast
  GI50: 0.454 µM
  TGI: 65.6 µM
SK-OV-3 ovarian
  GI50: 0.313 µM
  TGI: 13.7 µM
OVCAR-4 ovarian
  GI50: 3.47 µM
  TGI: > 100 µM
UACC-62 melanoma
  GI50: 0.295 µM
  TGI: 65 µM
ACHN renal
  GI50: 1.06 µM
  TGI: > 100 µM
NCI-H226 lung
  GI50: 2.15 µM
  TGI: 16.9 µM
SR leukemia
  GI50: 0.0384 µM
  TGI: > 100 µM
SK-MEL-28 melanoma
  GI50: 4.26 µM
  TGI: > 100 µM
UO-31 renal
  GI50: 1.84 µM
  TGI: > 100 µM
HOP-62 NSCLC
  GI50: 0.371 µM
  TGI: > 100 µM
MOLT-4 leukemia
  GI50: 0.514 µM
  TGI: 24.1 µM
BT-549 breast
  GI50: 1.28 µM
  TGI: 40.8 µM
COLO 205 colon
  GI50: 0.11 µM
  TGI: 0.846 µM
U251 CNS
  GI50: 0.299 µM
  TGI: > 100 µM
HOP-92 NSCLC
  GI50: 0.334 µM
  TGI: 81.5 µM
CAKI-1 renal
  GI50: 0.298 µM
  TGI: > 100 µM
NCI-H23 lung
  GI50: 0.375 µM
  TGI: 73.8 µM
UACC-257 melanoma
  GI50: 3.08 µM
  TGI: 38.4 µM
HT29 colon
  GI50: 0.0643 µM
  TGI: 32.8 µM
RPMI-8226 leukemia
  GI50: 0.279 µM
  TGI: 21 µM
M14 melanoma
  GI50: 0.167 µM
  TGI: 23.6 µM
DU-145 prostate
  GI50: 0.422 µM
  TGI: 2.87 µM
OVCAR-3 ovarian
  GI50: 0.211 µM
  TGI: 0.611 µM
SNB-19 CNS
  GI50: 1.05 µM
  TGI: > 100 µM
SF-295 CNS
  GI50: 0.211 µM
  TGI: > 51.5 µM
NCI-H460 lung
  GI50: 0.228 µM
  TGI: 9.49 µM
K-562 leukemia
  GI50: 0.0469 µM
  TGI: > 100 µM
SK-MEL-5 melanoma
  GI50: 0.0992 µM
  TGI: 2.76 µM
SF-539 CNS
  GI50: 0.266 µM
CCRF-CEM leukemia
  GI50: 0.268 µM
  TGI: > 100 µM
HCT-15 colon
  GI50: 0.101 µM
  TGI: > 100 µM
A549 NSCLC
  GI50: 0.211 µM
  TGI: > 100 µM
OVCAR-5 ovarian
  GI50: 0.773 µM
  TGI: > 100 µM
IGROV1 ovarian
  GI50: 0.984 µM
  TGI: > 100 µM
HCT-116 colon
  GI50: 0.126 µM
  TGI: > 100 µM
TK-10 renal
  GI50: 13.8 µM
  TGI: > 100 µM
HL-60(TB) leukemia
  GI50: 0.143 µM
  TGI: 20.6 µM
OVCAR-8 ovarian
  GI50: 0.409 µM
  TGI: > 25.2 µM
786-0 renal
  GI50: 1.25 µM
  TGI: > 100 µM
MDA-MB-231 breast
  GI50: 1.26 µM
  TGI: > 100 µM
SW-620 colon
  GI50: 0.0684 µM
  TGI: > 100 µM
KM12 colon
  GI50: 0.0715 µM
  TGI: > 34 µM
A498 renal
  GI50: 0.171 µM
  TGI: 0.808 µM
PC-3 prostate
  GI50: 0.334 µM
  TGI: > 100 µM
NCI-H522 lung
  GI50: 0.139 µM
  TGI: 4.25 µM
MCF7 breast
  GI50: 0.32 µM
  TGI: > 100 µM
